Target: T1, TrkA (Homo sapiens, UniProt P04629)
T1 construct: purchased Invitrogen PV3144
Test: TrkA kinase inhibition, HTRF assay
Type: biochemical
Conditions: LCK peptide substrate 125 nM, TrkA 2-10 nM pre-incubated with ATP 200 μM
Method in brief: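 TrkA (2-10 nM) preactivated 20 min with 200 μM ATP in HEPES pH 7.4 with Mg2+/Mn2+, then compound for 10 min, then 125 nM biotinylated LCK-peptide for 1 h at ambient temperature. HTRF 665/620 ratio read; IC50 fitted from initial-rate percent inhibition.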

T1 sequence (P04629 33-796): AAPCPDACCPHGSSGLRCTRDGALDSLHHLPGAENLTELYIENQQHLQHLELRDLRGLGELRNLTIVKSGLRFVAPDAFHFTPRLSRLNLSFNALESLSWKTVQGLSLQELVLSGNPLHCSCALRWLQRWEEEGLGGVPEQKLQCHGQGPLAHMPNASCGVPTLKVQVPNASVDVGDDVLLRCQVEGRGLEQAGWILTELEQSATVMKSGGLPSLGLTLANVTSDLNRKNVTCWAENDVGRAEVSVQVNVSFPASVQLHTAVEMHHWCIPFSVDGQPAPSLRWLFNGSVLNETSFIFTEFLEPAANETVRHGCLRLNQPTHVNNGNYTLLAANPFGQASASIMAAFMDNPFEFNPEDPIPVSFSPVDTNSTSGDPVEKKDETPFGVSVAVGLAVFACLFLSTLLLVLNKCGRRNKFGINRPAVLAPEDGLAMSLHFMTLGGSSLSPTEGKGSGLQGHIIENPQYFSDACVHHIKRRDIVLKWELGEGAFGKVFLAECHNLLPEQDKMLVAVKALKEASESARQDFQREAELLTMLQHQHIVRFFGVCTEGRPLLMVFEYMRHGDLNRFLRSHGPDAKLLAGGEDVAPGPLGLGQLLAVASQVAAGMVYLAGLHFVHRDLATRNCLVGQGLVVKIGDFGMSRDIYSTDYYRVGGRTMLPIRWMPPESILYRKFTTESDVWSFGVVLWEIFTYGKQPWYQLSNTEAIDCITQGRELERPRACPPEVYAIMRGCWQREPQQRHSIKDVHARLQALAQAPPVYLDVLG

| SMILES | IC50 [nM] |
| --- | --- |
| CNC(=O)c1ccc(-c2cc(OC3CCOCC3)c3c(C)n[nH]c3c2)cc1OCCOC1CCCCC1 [Example 126, 2-[2-(cyclohexyloxy)ethoxy]-N-methyl-4-[3-methyl-4-(tetrahydro-2H-pyran-4-yloxy)-1H-indazol-6-yl]benzamide] | 4.74 |
| Cc1n[nH]c2cc(-c3ccc(C(N)=O)c(N4CCN(CC(F)(F)F)CC4)c3)cc(OC3CCOCC3)c12 [Example 157, 4-[3-methyl-4-(tetrahydro-2H-pyran-4-yloxy)-1H-indazol-6-yl]-2-[4-(2,2,2-trifluoroethyl)piperazin-1-yl]benzamide] | 22.7 |
| CC(=O)Nc1ccc(-c2cc(OC3CCOCC3)c3c(C)n[nH]c3c2)cc1N1CCN(Cc2ccc(Cl)o2)CC1 [Example 150, N-(2-{4-[(5-chloro-2-furyl)methyl]piperazin-1-yl}-4-[3-methyl-4-(tetrahydro-2H-pyran-4-yloxy)-1H-indazol-6-yl]phenyl)acetamide] | 74.5 |
| Cc1n[nH]c2cc(-c3ccc(NS(C)(=O)=O)c(N4CCN(C(=O)OC(C)(C)C)CC4)c3)cc(OC3CCOCC3)c12 [Example 162, tert-butyl 4-{2-[(methylsulfonyl)amino]-5-[3-methyl-4-(tetrahydro-2H-pyran-4-yloxy)-1H-indazol-6-yl]phenyl}piperazine-1-carboxylate] | 28.1 |
| CNC(=O)c1ccc(-c2cc(O[C@@H](C)C(F)(F)F)c3c(N)n[nH]c3c2)cc1N1CCN(C2CCC2)CC1 [Example 42, 4-(3-amino-4-{[(2S)-1,1,1-trifluoropropan-2-yl]oxy}-1H-indazol-6-yl)-2-(4-cyclobutylpiperazin-1-yl)-N-methylbenzamide] | 422 |
| CNC(=O)c1ccc(-c2cc(OC3CCOCC3)c3c(C)n[nH]c3c2)cc1N1CCN(C(=O)CC2CC2)CC1 [Example 164, 2-[4-(cyclopropylacetyl)piperazin-1-yl]-N-methyl-4-[3-methyl-4-(tetrahydro-2H-pyran-4-yloxy)-1H-indazol-6-yl]benzamide] | 8.62 |
| CNC(=O)c1ccc(-c2cc(OC3CCOCC3)c3c(N)n[nH]c3c2)cc1N1CCN(CC2CC2(F)F)CC1 (stereo not drawn) [Example 173, 4-[3-amino-4-(tetrahydro-2H-pyran-4-yloxy)-1H-indazol-6-yl]-2-{4-[(2,2-difluorocyclopropyl)methyl]piperazin-1-yl}-N-methylbenzamide] | 16.4 |
| CNC(=O)c1ccc(-c2cc(O[C@@H](C)C(F)(F)F)c3c(N)n[nH]c3c2)cc1N1CCN(C2CCCC2)CC1 [Example 44, 4-(3-amino-4-{[(2S)-1,1,1-trifluoropropan-2-yl]oxy}-1H-indazol-6-yl)-2-(4-cyclopentylpiperazin-1-yl)-N-methylbenzamide] | 25.3 |
| NC(=O)c1ccc(-c2cc(O[C@H]3CCOC3)c3c(N)n[nH]c3c2)cc1N1CCN(c2cccnc2)CC1 [Example 67, 4-{3-amino-4-[(3S)-tetrahydrofuran-3-yloxy]-1H-indazol-6-yl}-2-[4-(pyridin-3-yl)piperazin-1-yl]benzamide] | 7.97 |
| CNC(=O)c1ccc(-c2cc(O[C@H](C)C(F)(F)F)c3c(N)n[nH]c3c2)cc1N1CCN(CCC(C)(C)C)CC1 [Example 51, 4-(3-amino-4-{[(2R)-1,1,1-trifluoropropan-2-yl]oxy}-1H-indazol-6-yl)-2-[4-(3,3-dimethylbutyl)piperazin-1-yl]-N-methylbenzamide] | 75.4 |
| CC(O)c1ccc(-c2cc(OC3CCOCC3)c3c(N)n[nH]c3c2)cc1N1CCN(c2cccnc2)CC1 (stereo not drawn) [Example 22, 1-{4-[3-amino-4-(tetrahydro-2H-pyran-4-yloxy)-1H-indazol-6-yl]-2-[4-(pyridin-3-yl)piperazin-1-yl]phenyl}ethanol] | 254 |
| CCOC(=O)N1CCN(c2cc(-c3cc(OC4CCOCC4)c4c(C)n[nH]c4c3)ccc2C(=O)NC)CC1 [Example 134, ethyl 4-{2-(methylcarbamoyl)-5-[3-methyl-4-(tetrahydro-2H-pyran-4-yloxy)-1H-indazol-6-yl]phenyl}piperazine-1-carboxylate] | 12.7 |
| CNC(=O)c1ccc(-c2cc(OC3CCOCC3)c3c(C)n[nH]c3c2)cc1N1CCN(C(=O)OCC(C)(C)C)CC1 [Example 137, 2,2-dimethylpropyl 4-{2-(methylcarbamoyl)-5-[3-methyl-4-(tetrahydro-2H-pyran-4-yloxy)-1H-indazol-6-yl]phenyl}piperazine-1-carboxylate] | 57.3 |
| CNC(=O)c1ccc(-c2cc(OC3CCOCC3)c3c(C)n[nH]c3c2)cc1N1CCN(Cc2cccnc2)CC1 [Example 123, N-methyl-4-[3-methyl-4-(tetrahydro-2H-pyran-4-yloxy)-1H-indazol-6-yl]-2-[4-(pyridin-3-ylmethyl)piperazin-1-yl]benzamide] | 3.75 |
| NC(=O)c1ccc(-c2cc(OC3CCCC3)c3c(N)n[nH]c3c2)cc1N1CCN(c2ccccn2)CC1 [Example 75, 4-[3-amino-4-(cyclopentyloxy)-1H-indazol-6-yl]-2-[4-(pyridin-2-yl)piperazin-1-yl]benzamide] | 2.31 |
| CNC(=O)c1ccc(-c2cc(OC3CCOCC3)c3c(N)n[nH]c3c2)cc1N1CCN(CC(C)(F)F)CC1 [Example 172, 4-[3-amino-4-(tetrahydro-2H-pyran-4-yloxy)-1H-indazol-6-yl]-2-[4-(2,2-difluoropropyl)piperazin-1-yl]-N-methylbenzamide] | 22 |
| NC(=O)c1ccc(-c2ccc3c(N)n[nH]c3c2)cc1N1CCN(c2cccnc2)CC1 [Example 90, 4-(3-amino-1H-indazol-6-yl)-2-[4-(pyridin-3-yl)piperazin-1-yl]benzamide] | 227 |
| CNC(=O)c1ccc(-c2cc(OC(C)C(F)(F)F)c3c(N)n[nH]c3c2)cc1N1CCN(CCN2CCOCC2)CC1 (stereo not drawn) [Example 37, 4-{3-amino-4-[(1,1,1-trifluoropropan-2-yl)oxy]-1H-indazol-6-yl}-N-methyl-2-{4-[2-(morpholin-4-yl)ethyl]piperazin-1-yl}benzamide] | 667 |

Continued by falling IC50, values first:

| IC50 [nM] | SMILES |
| --- | --- |
| 852 | CC(Oc1cc(-c2ccc(C(N)=O)c(N3C[C@H]4CN(Cc5ccccc5)C[C@H]4C3)c2)cc2[nH]nc(N)c12)C(F)(F)F (stereo partly drawn) [Example 99, 4-{3-amino-4-[(1,1,1-trifluoropropan-2-yl)oxy]-1H-indazol-6-yl}-2-[(3aR*,6aS*)-5-benzylhexahydropyrrolo[3,4-c]pyrrol-2(1H)-yl]benzamide] |
| 539 | CC(Oc1cc(-c2ccc(C(N)=O)c(N3CCN(c4ccncc4)CC3)c2)cc2[nH]nc(N)c12)C(F)(F)F (stereo not drawn) [Example 98, 4-{3-amino-4-[(1,1,1-trifluoropropan-2-yl)oxy]-1H-indazol-6-yl}-2-[4-(pyridin-4-yl)piperazin-1-yl]benzamide] |
| 208 | NC(=O)c1ccc(-c2cc(OC3CCOCC3)c3c(N)n[nH]c3c2)cc1N1CCN(CCOCCO)CC1 [Example 11, 4-[3-amino-4-(tetrahydro-2H-pyran-4-yloxy)-1H-indazol-6-yl]-2-{4-[2-(2-hydroxyethoxy)ethyl]piperazin-1-yl}benzamide] |
| 171 | CNC(=O)c1ccc(-c2cc(OC3CCOCC3)c3c(C)n[nH]c3c2)cc1N1CCN(C(=O)OC(C)C(F)(F)F)CC1 (stereo not drawn) [Example 163, 1,1,1-trifluoropropan-2-yl 4-{2-(methylcarbamoyl)-5-[3-methyl-4-(tetrahydro-2H-pyran-4-yloxy)-1H-indazol-6-yl]phenyl}piperazine-1-carboxylate] |
| 89.8 | CC(Oc1cc(-c2ccc(C(N)=O)c(N3CCN(CCN4CCOCC4)CC3)c2)cc2[nH]nc(N)c12)C(F)(F)F (stereo not drawn) [Example 95, 4-{3-amino-4-[(1,1,1-trifluoropropan-2-yl)oxy]-1H-indazol-6-yl}-2-{4-[2-(morpholin-4-yl)ethyl]piperazin-1-yl}benzamide] |
| 62.9 | CC(=O)c1ccc(-c2cc(OC3CCOCC3)c3c(N)n[nH]c3c2)cc1N1CCN(c2ccccc2)CC1 [Example 13, 1-{4-[3-amino-4-(tetrahydro-2H-pyran-4-yloxy)-1H-indazol-6-yl]-2-(4-phenylpiperazin-1-yl)phenyl}ethanone] |
| 44.4 | CNC(=O)c1ccc(-c2cc(O[C@H](C)C(F)(F)F)c3c(N)n[nH]c3c2)cc1N1CCN(C2CCCC2)CC1 [Example 53, 4-(3-amino-4-{[(2R)-1,1,1-trifluoropropan-2-yl]oxy}-1H-indazol-6-yl)-2-(4-cyclopentylpiperazin-1-yl)-N-methylbenzamide] |
| 38.1 | CC(=O)c1ccc(-c2cc(OC3CCOCC3)c3c(N)n[nH]c3c2)cc1N1CCN(C2CCCCC2)CC1 [Example 19, 1-{4-[3-amino-4-(tetrahydro-2H-pyran-4-yloxy)-1H-indazol-6-yl]-2-(4-cyclohexylpiperazin-1-yl)phenyl}ethanone] |
| 34.6 | CC(=O)Nc1ccc(-c2cc(OC3CCOCC3)c3c(C)n[nH]c3c2)cc1N1CCN(Cc2cccnc2)CC1 [Example 148, N-{4-[3-methyl-4-(tetrahydro-2H-pyran-4-yloxy)-1H-indazol-6-yl]-2-[4-(pyridin-3-ylmethyl)piperazin-1-yl]phenyl}acetamide] |
| 25.3 | NC(=O)c1ccc(-c2cc(OC3CCNCC3)c3c(N)n[nH]c3c2)cc1N1CCN(c2ccccc2)CC1 [Example 63, 4-[3-amino-4-(piperidin-4-yloxy)-1H-indazol-6-yl]-2-(4-phenylpiperazin-1-yl)benzamide] |
| 20.4 | Nc1n[nH]c2cc(-c3ccc(C(=O)NC4CC4)c(N4CCN(c5cccnc5)CC4)c3)cc(OC3CCOCC3)c12 [Example 24, 4-[3-amino-4-(tetrahydro-2H-pyran-4-yloxy)-1H-indazol-6-yl]-N-cyclopropyl-2-[4-(pyridin-3-yl)piperazin-1-yl]benzamide] |
| 4.98 | CC(Oc1cc(-c2ccc(C(N)=O)c(N3CCN(CCC(C)(C)C)CC3)c2)cc2[nH]nc(N)c12)C(F)(F)F (stereo not drawn) [Example 100, 4-{3-amino-4-[(1,1,1-trifluoropropan-2-yl)oxy]-1H-indazol-6-yl}-2-[4-(3,3-dimethylbutyl)piperazin-1-yl]benzamide] |

From patent US20160376240A1, “6 Phenyl or 6 Pyridin 3 YL Indazole Derivatives and Methods of Use” (ABBVIE INC., priority 2014, published 2016)
